Experimental data as given in patent US12247032B2, “Substituted pyrazolo[1,5-a]pyrimidines as inhibitors of JAK kinases” (Genentech, Inc., priority 2019, dated 2025).
Read-outs that look alike come from different tables or passages of the source.

How the values were obtained:
[1] = biological target: T1, Recombinant human JAK2 kinase domain protein (Residues 812-1132) (Homo sapiens, UniProt O60674); test: JAK2 biochemical assay (microfluidic mobility shift, peptide phosphorylation); details: 25 μM ATP, 0.2 nM total JAK2; Ki calculated from Ki app (tight-binding, competitive); read-out: Biochem JAK2 Ki
T1 construct: human JAK2 kinase domain protein (Residues 812-1132); made in house; host or cells: insect cells
Outline: (§1)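 Insect-cell-expressed human JAK1 (1 nM, residues 854-1154) or JAK2 (0.2 nM, residues 812-1132) phosphorylating 1.5 μM 5-FAM peptide Y-1B with 25 μM ATP, pH 7.2 HEPES, 30 min at 22-23 °C; twelve concentrations up to 1000 nM in duplicate. Mobility-shift % conversion fitted to tight-binding quadratic for Ki^app.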

[2] = test system: JAK1 (IL-13-stimulated STAT6 phosphorylation in BEAS-2B cells); test: P-STAT6 BEAS-2B+IL-13 cell assay; type: cell-based, human; details: 1 hour compound, IL-13 15 minutes, IC50 by four-parameter fit, read-out: Cellular JAK1 PSTAT6 BEAS2B + IL13
Outline: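 BEAS-2B human bronchial epithelial cells preincubated 1 h at 37 °C with compound, then stimulated with human recombinant IL-13 for 15 min. Phospho-STAT6 (Tyr641) in lysates measured by MSD electrochemiluminescence immunoassay; IC50 from a four-parameter logistic fit of percent of control.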

[3] = biological target: T2, recombinant human JAK1 kinase domain protein (Residues 854-1154) (Homo sapiens, UniProt P23458); test: JAK1 biochemical assay (microfluidic mobility shift, peptide phosphorylation); details: 25 μM ATP, 1 nM total JAK1; Ki calculated from Ki app (tight-binding, competitive); read-out: Biochem JAK1 Ki
T2 construct: human JAK1 kinase domain protein (Residues 854-1154); purchased Proteros Biostructures GmbH (Martinsried, Germany); host or cells: insect cells
Outline: as §1

T2 sequence (P23458 854-1154): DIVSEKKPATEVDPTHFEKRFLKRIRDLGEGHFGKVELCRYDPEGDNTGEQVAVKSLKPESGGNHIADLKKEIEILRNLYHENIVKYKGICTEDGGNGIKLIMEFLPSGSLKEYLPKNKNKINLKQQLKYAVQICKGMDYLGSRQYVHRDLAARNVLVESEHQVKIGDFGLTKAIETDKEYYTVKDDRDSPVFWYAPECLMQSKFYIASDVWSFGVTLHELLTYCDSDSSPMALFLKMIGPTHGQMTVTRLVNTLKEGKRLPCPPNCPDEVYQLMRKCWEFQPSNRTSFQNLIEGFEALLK
T1 sequence (O60674 812-1132): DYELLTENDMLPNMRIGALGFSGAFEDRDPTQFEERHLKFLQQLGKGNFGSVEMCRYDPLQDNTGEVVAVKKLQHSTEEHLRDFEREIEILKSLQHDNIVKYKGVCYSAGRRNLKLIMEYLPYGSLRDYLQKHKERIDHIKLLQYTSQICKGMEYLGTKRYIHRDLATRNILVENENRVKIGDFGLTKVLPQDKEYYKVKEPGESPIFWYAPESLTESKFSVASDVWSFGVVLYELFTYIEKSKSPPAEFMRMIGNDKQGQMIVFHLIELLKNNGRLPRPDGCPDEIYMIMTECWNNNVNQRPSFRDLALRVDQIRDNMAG

| Ki [1] | Ki [3] | Structure (SMILES) | IC50 [2] | IC50 ([2]; Homo sapiens, BEAS-2B, 1 h) |
| --- | --- | --- | --- | --- |
| 0.5 nM | 0.55 nM | CN(C)CC(F)CN1CC(n2nnc(Cn3cc(NC(=O)c4cnn5cccnc45)c(-c4cc(OC(F)F)ccc4OC(F)F)n3)n2)C1 (single isomer, unassigned) [Example 84, N-[3-[2,5-bis(difluoromethoxy)phenyl]-1-[[2-[1-[3-(dimethylamino)-2-fluoro-propyl]azetidin-3-yl]tetrazol-5-yl]methyl]pyrazol-4-yl]pyrazolo[1,5-a]pyrimidine-3-carboxamide] | 20 nM | – |
| 0.55 nM | 0.71 nM | CN(C)CCCN1CC(n2nnc(Cn3cc(NC(=O)c4cnn5cccnc45)c(-c4cc(C5CC5)ccc4OC(F)F)n3)n2)C1 [Example 57, N-[3-[5-cyclopropyl-2-(difluoromethoxy)phenyl]-1-[[2-[1-[3-(dimethylamino)propyl]azetidin-3-yl]tetrazol-5-yl]methyl]pyrazol-4-yl]pyrazolo[1,5-a]pyrimidine-3-carboxamide] | – | 73 nM |
| 0.47 nM | 0.55 nM | CN(C)C1CCC(N2CC(n3nnc(Cn4cc(NC(=O)c5cnn6cccnc56)c(-c5cc(OC(F)F)ccc5OC(F)F)n4)n3)C2)C1 (single isomer, unassigned) [Example 74, N-[3-[2,5-bis(difluoromethoxy)phenyl]-1-[[2-[1-[3-(dimethylamino)cyclopentyl]azetidin-3-yl]tetrazol-5-yl]methyl]pyrazol-4-yl]pyrazolo[1,5-a]pyrimidine-3-carboxamide] | 93 nM | – |
| 0.29 nM | 0.4 nM | CNCCN1CC(n2nnc(Cn3cc(NC(=O)c4cnn5cccnc45)c(-c4cc(OC(F)F)ccc4OC(F)F)n3)n2)C1 [Example 34, N-[3-[2,5-bis(difluoromethoxy)phenyl]-1-[[2-[1-[2-(methylamino)ethyl]azetidin-3-yl]tetrazol-5-yl]methyl]pyrazol-4-yl]pyrazolo[1,5-a]pyrimidine-3-carboxamide] | – | 180 nM |
| 0.55 nM | 0.64 nM | CN1CCC(N2CC(n3nnc(Cn4cc(NC(=O)c5cnn6cccnc56)c(-c5cc(OC(F)F)ccc5OC(F)F)n4)n3)C2)C1 (single isomer, unassigned) [Example 73, N-[3-[2,5-bis(difluoromethoxy)phenyl]-1-[[2-[1-(1-methylpyrrolidin-3-yl)azetidin-3-yl]tetrazol-5-yl]methyl]pyrazol-4-yl]pyrazolo[1,5-a]pyrimidine-3-carboxamide] | 43 nM | – |
| 0.41 nM | 0.53 nM | CN1CCC[C@@H]1Cn1nnc(Cn2cc(NC(=O)c3cnn4cccnc34)c(-c3cc(OC(F)F)ccc3OC(F)F)n2)n1 (stereo in doubt) [Example 49, N-[3-[2,5-bis(difluoromethoxy)phenyl]-1-[[2-[[rac-(2R)-1-methylpyrrolidin-2-yl]methyl]tetrazol-5-yl]methyl]pyrazol-4-yl]pyrazolo[1,5-a]pyrimidine-3-carboxamide] | – | 19 nM |
| 0.71 nM | 1 nM | CN(C)C1CCN(CCn2nnc(Cn3cc(NC(=O)c4cnn5cccnc45)c(-c4cc(OC(F)F)ccc4OC(F)F)n3)n2)CC1 [Example 59, N-[3-[2,5-bis(difluoromethoxy)phenyl]-1-[[2-[2-[4-(dimethylamino)-1-piperidyl]ethyl]tetrazol-5-yl]methyl]pyrazol-4-yl]pyrazolo[1,5-a]pyrimidine-3-carboxamide] | – | 62 nM |
| 0.43 nM | 0.58 nM | CN1CCC(n2nnc(Cn3cc(NC(=O)c4cnn5cccnc45)c(-c4cc(Cl)ccc4OC(F)F)n3)n2)CC1 [Example 3, N-[3-[5-chloro-2-(difluoromethoxy)phenyl]-1-[[2-(1-methyl-4-piperidyl)tetrazol-5-yl]methyl]pyrazol-4-yl]pyrazolo[1,5-a]pyrimidine-3-carboxamide] | – | 14 nM |
| 0.44 nM | 0.5 nM | CC(C)Sc1ccc(OC(F)F)c(-c2nn(Cc3nnn(C4CN(C5CCN(C)CC5)C4)n3)cc2NC(=O)c2cnn3cccnc23)c1 [Example 79, N-[3-[2-(difluoromethoxy)-5-isopropylsulfanyl-phenyl]-1-[[2-[1-(1-methyl-4-piperidyl)azetidin-3-yl]tetrazol-5-yl]methyl]pyrazol-4-yl]pyrazolo[1,5-a]pyrimidine-3-carboxamide] | – | 40 nM |
| 0.089 nM | 0.15 nM | O=C(Nc1cn(Cc2nnn(CCO)n2)nc1-c1cc(Cl)ccc1OC(F)F)c1cnn2cccnc12 [Example 1, N-[3-[5-chloro-2-(difluoromethoxy)phenyl]-1-[[2-(2-hydroxyethyl)tetrazol-5-yl]methyl]pyrazol-4-yl]pyrazolo[1,5-a]pyrimidine-3-carboxamide] | – | 6.7 nM |
| 0.37 nM | 0.37 nM | CN(C)CCCN1CC(n2nnc(Cn3cc(NC(=O)c4cnn5cccnc45)c(-c4cc(OC(F)F)ccc4OC(F)F)n3)n2)C1 [Example 51, N-[3-[2,5-bis(difluoromethoxy)phenyl]-1-[[2-[1-[3-(dimethylamino)propyl]azetidin-3-yl]tetrazol-5-yl]methyl]pyrazol-4-yl]pyrazolo[1,5-a]pyrimidine-3-carboxamide] | – | 12 nM |
| 0.68 nM | 0.78 nM | O=C(Nc1cn(Cc2nnn(CCN3CCNCC3)n2)nc1-c1cc(Cl)ccc1OC(F)F)c1cnn2cccnc12 [Example 40, N-[3-[5-chloro-2-(difluoromethoxy)phenyl]-1-[[2-(2-piperazin-1-ylethyl)tetrazol-5-yl]methyl]pyrazol-4-yl]pyrazolo[1,5-a]pyrimidine-3-carboxamide] | – | 86 nM |
| 0.39 nM | 0.38 nM | CN(C)C(C)(C)CCN1CC(n2nnc(Cn3cc(NC(=O)c4cnn5cccnc45)c(-c4cc(OC(F)F)ccc4OC(F)F)n3)n2)C1 [Example 77, N-[3-[2,5-bis(difluoromethoxy)phenyl]-1-[[2-[1-[3-(dimethylamino)-3-methyl-butyl]azetidin-3-yl]tetrazol-5-yl]methyl]pyrazol-4-yl]pyrazolo[1,5-a]pyrimidine-3-carboxamide] | – | 110 nM |
| 0.41 nM | 0.46 nM | CN(C)C1(CCN2CC(n3nnc(Cn4cc(NC(=O)c5cnn6cccnc56)c(-c5cc(OC(F)F)ccc5OC(F)F)n4)n3)C2)CC1 [Example 80, N-[3-[2,5-bis(difluoromethoxy)phenyl]-1-[[2-[1-[2-[1-(dimethylamino)cyclopropyl]ethyl]azetidin-3-yl]tetrazol-5-yl]methyl]pyrazol-4-yl]pyrazolo[1,5-a]pyrimidine-3-carboxamide; formic acid] | – | 40 nM |
| 0.3 nM | 0.41 nM | CN(C)C1CCC(n2nnc(Cn3cc(NC(=O)c4cnn5cccnc45)c(-c4cc(OC(F)F)ccc4OC(F)F)n3)n2)CC1 (stereo not drawn) [Example 66, N-[3-[2,5-bis(difluoromethoxy)phenyl]-1-[[2-[4-(dimethylamino)cyclohexyl]tetrazol-5-yl]methyl]pyrazol-4-yl]pyrazolo[1,5-a]pyrimidine-3-carboxamide] | – | 32 nM |
| 0.46 nM | 0.64 nM | CN(C)[C@H]1C[C@@H](n2nnc(Cn3cc(NC(=O)c4cnn5cccnc45)c(-c4cc(OC(F)F)ccc4OC(F)F)n3)n2)C1 [Example 63, N-[3-[2,5-bis(difluoromethoxy)phenyl]-1-[[2-[3-(dimethylamino)cyclobutyl]tetrazol-5-yl]methyl]pyrazol-4-yl]pyrazolo[1,5-a]pyrimidine-3-carboxamide] | – | 22 nM |
| 0.32 nM | 0.46 nM | CSc1ccc(OC(F)F)c(-c2nn(Cc3nnn(C4CN(CCN(C)C)C4)n3)cc2NC(=O)c2cnn3cccnc23)c1 [Example 47, N-[3-[2-(difluoromethoxy)-5-methylsulfanyl-phenyl]-1-[[2-[1-[2-(dimethylamino)ethyl]azetidin-3-yl]tetrazol-5-yl]methyl]pyrazol-4-yl]pyrazolo[1,5-a]pyrimidine-3-carboxamide] | – | 16 nM |
| 0.22 nM | 0.33 nM | CN1CCN(CCn2nnnc2Cn2cc(NC(=O)c3cnn4cccnc34)c(-c3cc(Cl)ccc3OC(F)F)n2)CC1 [Example 42, N-[3-[5-chloro-2-(difluoromethoxy)phenyl]-1-[[1-[2-(4-methylpiperazin-1-yl)ethyl]tetrazol-5-yl]methyl]pyrazol-4-yl]pyrazolo[1,5-a]pyrimidine-3-carboxamide] | – | 16 nM |
| 0.38 nM | 0.66 nM | CN(C)CCCN1CC(n2nnc(Cn3cc(NC(=O)c4cnn5cccnc45)c(-c4cc(Cl)ccc4OC(F)F)n3)n2)C1 [Example 62, N-[3-[5-chloro-2-(difluoromethoxy)phenyl]1-[[2-[1-[3-(dimethylamino)propyl]azetidin-3-yl]tetrazol-5-yl]methyl]pyrazol-4-yl]pyrazolo[1,5-a]pyrimidine-3-carboxamide] | – | 38 nM |
